For orientation: inhibition means the drop in the measured response relative to a control, in per cent.

This is an account of results in PMC6934184, “Selective DNA-PKcs inhibition extends the therapeutic index of localized radiotherapy and chemotherapy” (The Journal of Clinical Investigation, 2019).

The target of the experiment is T1, PAK1 (Homo sapiens, UniProt Q13153).
T1 construct: purchased Thermo Fisher Scientific (Life Technologies) SelectScreen
As to the kind of experiment: SelectScreen Z'LYTE. Type of experiment: biochemical. The procedure, abridged: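 NU5455 was profiled across the SelectScreen Broad panel of kinase activity and binding assays. Z'LYTE reactions such as CSF1R ran at apparent Km ATP, while the Adapta CAMK1 assay used ATP listed as 10. Values are given as percent.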

T1 sequence (Q13153 whole entry): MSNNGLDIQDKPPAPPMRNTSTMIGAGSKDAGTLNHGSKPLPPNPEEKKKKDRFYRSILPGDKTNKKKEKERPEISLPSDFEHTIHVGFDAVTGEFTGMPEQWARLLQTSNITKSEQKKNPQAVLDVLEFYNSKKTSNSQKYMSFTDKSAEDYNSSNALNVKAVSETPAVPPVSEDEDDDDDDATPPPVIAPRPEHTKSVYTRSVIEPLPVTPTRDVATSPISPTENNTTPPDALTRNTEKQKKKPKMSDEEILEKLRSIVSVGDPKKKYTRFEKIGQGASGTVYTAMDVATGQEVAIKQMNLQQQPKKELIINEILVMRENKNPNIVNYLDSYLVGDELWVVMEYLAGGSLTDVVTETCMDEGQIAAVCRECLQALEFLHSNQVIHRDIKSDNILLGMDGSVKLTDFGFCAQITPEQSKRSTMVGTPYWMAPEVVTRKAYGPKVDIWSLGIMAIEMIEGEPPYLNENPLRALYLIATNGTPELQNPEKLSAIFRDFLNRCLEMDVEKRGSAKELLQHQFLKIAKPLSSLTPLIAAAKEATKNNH

For `CN(C(=O)CN1CCOCC1)c1ccc2sc3c(-c4cccc5c(=O)cc(N6CC7CCC(C6)O7)oc45)cccc3c2c1` [NU5455], the inhibition at 1 µM is -4.4%.
